Measured values from publication PMC9795544, “Identifying Novel Inhibitors for Hepatic Organic Anion Transporting Polypeptides by Machine Learning-Based Virtual Screening” (Journal of Chemical Information and Modeling, 2022).
Several values for one entry are separate records, joined by “and”; a condition that tells them apart may be missing. Equal values may be shown once. Read-outs that look alike come from different tables or passages of the source.

Legend:
Assay type in all cases: cell-based
[1] = molecular target: T1, OATP2B1 (Homo sapiens, UniProt O94956); experiment: Pyranine transport inhibition in A431 cells overexpressing OATP2B1
T1 construct: expressed in transfected cells; host or cells: A431 cells
T1 sequence (O94956 1-709): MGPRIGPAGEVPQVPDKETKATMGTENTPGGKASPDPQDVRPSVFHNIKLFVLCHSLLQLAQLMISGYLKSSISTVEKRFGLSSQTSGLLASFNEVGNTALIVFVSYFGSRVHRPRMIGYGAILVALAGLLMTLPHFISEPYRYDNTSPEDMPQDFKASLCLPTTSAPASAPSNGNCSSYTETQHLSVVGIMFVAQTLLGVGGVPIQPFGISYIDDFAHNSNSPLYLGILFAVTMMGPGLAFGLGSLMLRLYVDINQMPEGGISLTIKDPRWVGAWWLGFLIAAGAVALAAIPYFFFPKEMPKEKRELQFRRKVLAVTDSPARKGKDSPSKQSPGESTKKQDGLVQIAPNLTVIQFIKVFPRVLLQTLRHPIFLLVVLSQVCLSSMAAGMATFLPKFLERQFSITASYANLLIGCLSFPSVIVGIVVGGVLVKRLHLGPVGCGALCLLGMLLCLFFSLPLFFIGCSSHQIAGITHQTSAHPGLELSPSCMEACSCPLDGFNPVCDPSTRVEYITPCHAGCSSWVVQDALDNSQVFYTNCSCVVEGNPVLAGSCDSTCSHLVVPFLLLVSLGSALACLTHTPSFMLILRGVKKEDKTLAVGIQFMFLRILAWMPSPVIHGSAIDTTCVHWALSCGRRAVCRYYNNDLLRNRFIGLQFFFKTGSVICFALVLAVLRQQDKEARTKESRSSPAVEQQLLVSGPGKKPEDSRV
Description: (§1) A431 cells overexpressing OATP1B1, OATP1B3, or OATP2B1 or their mock transfected controls were generated previously[30] and maintained in Dulbecco’s modified Eagle medium (DMEM, Gibco, Thermofisher Scientific, Waltham, MA, US) supplemented with 10% fetal bovine serum, 2 mM L-glutamine, 100 units/mL penicillin, and 100 μg/mL streptomycin. Expression and function of OATPs in the cell lines were checked regularly.
(§2) Interaction with OATP1B1, OATP1B3, or OATP2B1 was tested in an indirect transport assay using pyranine (8-hydroxypyrene-1,3,6-trisulfonic acid trisodium salt, H1529, Sigma, Merck, Budapest, Hungary) as the test substrate[31],[32] A431 cells overexpressing OATP1B1, OATP1B3, or OATP2B1 or their mock transfected controls were seeded on 96-well plates in a density of 8 × 10^4 cells per well in 200 μL of cell culture medium 1 day prior to the transport measurements. […] The transport reaction was started by the addition of 50 μL of uptake buffer containing pyranine in a final concentration of 10 μM (OATP1B1) or 20 μM (OATP1B3 and OATP2B1), and the cells were further incubated at 37 °C for 15 min (OATP1B1 and OATP2B1) or 30 min (OATP1B3). The reaction was stopped by removing the supernatant. After repeated washing with ice-cold PBS, fluorescence was determined in an Enspire plate reader (PerkinElmer, Waltham, MA) with excitation/emission wavelengths of 460/510 nm. OATP-dependent transport was calculated by extracting fluorescence measured in mock transfected cells and normalized to the fluorescence signal obtained in the absence of the tested compounds (100%). Experiments were repeated in at least three biological replicates.

[2] = molecular target: T2, OATP1B3 (Homo sapiens, UniProt Q9NPD5); experiment: Pyranine transport inhibition in A431 cells overexpressing OATP1B3
T2 construct: expressed in transfected cells; host or cells: A431 cells
T2 sequence (Q9NPD5 1-702): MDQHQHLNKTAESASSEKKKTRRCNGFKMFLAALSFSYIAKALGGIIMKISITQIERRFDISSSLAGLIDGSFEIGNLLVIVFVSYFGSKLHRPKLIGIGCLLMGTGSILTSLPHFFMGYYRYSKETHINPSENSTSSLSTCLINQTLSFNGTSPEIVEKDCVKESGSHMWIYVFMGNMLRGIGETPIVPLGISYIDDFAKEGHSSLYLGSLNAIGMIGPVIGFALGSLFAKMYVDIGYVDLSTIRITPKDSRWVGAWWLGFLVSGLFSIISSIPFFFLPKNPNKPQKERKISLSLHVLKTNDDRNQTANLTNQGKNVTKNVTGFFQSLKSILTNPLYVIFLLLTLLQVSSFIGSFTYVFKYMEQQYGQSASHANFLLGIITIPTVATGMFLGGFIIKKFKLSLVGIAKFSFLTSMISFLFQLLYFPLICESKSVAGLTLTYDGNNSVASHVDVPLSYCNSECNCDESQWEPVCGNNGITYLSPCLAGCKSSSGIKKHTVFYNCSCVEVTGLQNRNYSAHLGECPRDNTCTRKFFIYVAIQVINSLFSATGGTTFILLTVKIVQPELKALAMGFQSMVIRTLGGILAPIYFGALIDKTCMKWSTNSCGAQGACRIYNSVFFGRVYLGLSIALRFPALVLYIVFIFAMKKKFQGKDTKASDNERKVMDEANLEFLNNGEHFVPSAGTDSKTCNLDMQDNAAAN
Description: as §1, §2

[3] = molecular target: T3, OATP1B1 (Homo sapiens, UniProt Q9Y6L6); experiment: Pyranine transport inhibition in A431 cells overexpressing OATP1B1; conditions: for IC50: read-out: IC50 (μM) OATP1B1
T3 construct: expressed in transfected cells; host or cells: A431 cells
T3 sequence (Q9Y6L6 1-691): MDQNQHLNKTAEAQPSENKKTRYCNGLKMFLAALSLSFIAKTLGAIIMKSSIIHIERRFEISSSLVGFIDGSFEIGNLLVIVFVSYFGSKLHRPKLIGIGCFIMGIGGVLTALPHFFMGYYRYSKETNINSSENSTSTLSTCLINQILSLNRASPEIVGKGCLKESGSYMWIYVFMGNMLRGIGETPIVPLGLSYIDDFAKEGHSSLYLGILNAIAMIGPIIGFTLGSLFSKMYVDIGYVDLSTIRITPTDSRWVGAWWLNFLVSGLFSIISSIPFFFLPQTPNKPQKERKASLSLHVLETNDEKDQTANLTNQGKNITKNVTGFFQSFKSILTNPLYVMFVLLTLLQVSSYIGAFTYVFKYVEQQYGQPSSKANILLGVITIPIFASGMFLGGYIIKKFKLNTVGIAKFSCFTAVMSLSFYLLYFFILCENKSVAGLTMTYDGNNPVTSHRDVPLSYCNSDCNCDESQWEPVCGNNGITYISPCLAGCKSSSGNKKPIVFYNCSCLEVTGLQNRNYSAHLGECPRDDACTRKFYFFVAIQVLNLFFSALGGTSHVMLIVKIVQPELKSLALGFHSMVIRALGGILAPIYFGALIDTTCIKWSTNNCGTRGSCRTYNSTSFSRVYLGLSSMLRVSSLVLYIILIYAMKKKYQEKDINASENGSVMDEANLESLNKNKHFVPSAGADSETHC
Description: as §1, §2

[4] = initial three-point screen (1, 10, 100 μM), category by concentration needed for 50% inhibition, pyranine 20 μM, 15 min, pH 5.5, read-out: IC50 (μM) OATP2B1
[5] = initial three-point screen (1, 10, 100 μM), category by concentration needed for 50% inhibition, pyranine 20 μM, 30 min, pH 5.5, read-out: IC50 (μM) OATP1B3
[6] = initial three-point screen (1, 10, 100 μM), category by concentration needed for 50% inhibition, pyranine 10 μM, 15 min, pH 5.5
[7] = initial three-point screen (1, 10, 100 μM), category by concentration needed for 50% inhibition, pyranine 20 μM, 30 min, pH 5.5
[8] = IC50 (μM) OATP2B1, initial three-point screen (1, 10, 100 μM), category by concentration needed for 50% inhibition, pyranine 20 μM, 15 min, pH 5.5
[9] = IC50 (μM) OATP1B3, initial three-point screen (1, 10, 100 μM), category by concentration needed for 50% inhibition, pyranine 20 μM, 30 min, pH 5.5

For N#Cc1c(NC(=O)COC(=O)CN2C(=O)NC3(CCc4ccccc43)C2=O)sc2c1CCCCC2 (stereo not drawn) [A2, O=C(COC(=O)CN1C(=O)NC2(CCc3ccccc23)C1=O)Nc4sc5CCCCCc5c4C#N], the IC50 [1, 4] was 1 to 10 µM, the IC50 [2, 5] was 1 to 10 µM and the IC50 [3, 6] was 1 to 10 µM.
Cc1occc1-c1nnc(SCC(=O)c2ccc3c(c2)NC(=O)CO3)n1Cc1ccccc1 [A3, Cc1occc1c2nnc(SCC(=O)c3ccc4OCC(=O)Nc4c3)n2Cc5ccccc5] showed an IC50 [1, 4] of 1 to 10 µM, an IC50 [2, 5] of over 10 µM and an IC50 [3, 6] of 1 to 10 µM.
Fc1ccccc1-c1cc(-c2ccccc2)c2c3c(sc2n1)CCCC3 [A4, Fc1ccccc1c2cc(c3ccccc3)c4c5CCCCc5sc4n2] was tested, and the IC50 [1, 4] was over 10 µM, the “IC50 (μM) OATP1B3” value [2, 7] was “no effect” and the “IC50 (μM) OATP1B1” value [3, 6] was “no effect”.
In the case of Fc1ccc(C2CC(c3cccs3)=NN2c2nc(-c3ccccc3)c3cc(Cl)ccc3n2)cc1 (stereo not drawn) [A5, Fc1ccc(cc1)C2CC(=NN2c3nc(c4ccccc4)c5cc(Cl)ccc5n3)c6cccs6], the IC50 [1, 4] is reported as over 10 µM, the “IC50 (μM) OATP1B3” value [2, 7] is reported as “no effect” and the “IC50 (μM) OATP1B1” value [3, 6] is reported as “no effect”.
In the case of O=C(CN1C(=O)NC(Cc2c[nH]c3ccccc23)C1=O)Nc1ccc(OCc2ccccc2)cc1 (stereo not drawn) [A6, O=C(CN1C(=O)NC(Cc2c[nH]c3ccccc23)C1=O)Nc4ccc(OCc5ccccc5)cc4], the IC50 [1, 4] is reported as over 10 µM, the IC50 [2, 5] is reported as over 10 µM and the “IC50 (μM) OATP1B1” value [3, 6] is reported as “no effect”.
For CC(C)(C)c1ncc(NC(=O)c2ccccc2-c2ncc(-c3ccccc3)o2)cn1 [A7, CC(C)(C)c1ncc(NC(=O)c2ccccc2c3oc(cn3)c4ccccc4)cn1], the IC50 [1, 4] was 1 to 10 µM, the “IC50 (μM) OATP1B3” value [2, 7] was “Activated” and the “IC50 (μM) OATP1B1” value [3, 6] was “no effect”.
With Cc1ccc(NC(=O)C(Sc2nnc3n2CCCCC3)c2ccccc2)cc1Cl (stereo not drawn) [B2, Cc1ccc(NC(=O)C(Sc2nnc3CCCCCn23)c4ccccc4)cc1Cl] the IC50 [1, 8] was over 10 µM, the IC50 [2, 9] was over 10 µM and the “IC50 (μM) OATP1B1” value [3, 6] was “no effect”.
O=C(CC12CC3CC(CC(C3)C1)C2)NCC(=O)N1CCN(S(=O)(=O)c2ccccc2F)CC1 [B3, Fc1ccccc1S(=O)(=O)N2CCN(CC2)C(=O)CNC(=O)CC34CC5CC(CC(C5)C3)C4] showed an IC50 [1, 4] of 1 to 10 µM, an IC50 [2, 5] of over 10 µM and an IC50 [3, 6] of over 10 µM.
With O=C(Cc1ccccc1[N+](=O)[O-])NCC1CC2c3ccccc3C1c1ccccc12 (stereo not drawn) [B4, [O-][N+](=O)c1ccccc1CC(=O)NCC2CC3c4ccccc4C2c5ccccc35] the IC50 [1, 8] was 1 to 10 µM, the IC50 ([1]; full dose-response curve, eight concentrations, Hill1 fit, read-out: IC50 (μM) OATP2B1) was 2.4 µM and 2.37 µM and the IC50 [2, 9] was 1 to 10 µM. It also gave an IC50 ([2]; full dose-response curve, eight concentrations, Hill1 fit, read-out: IC50 (μM) OATP1B3) of about 10 µM, an IC50 ([3]; full dose-response curve, eight concentrations, Hill1 fit) of about 10 µM and an IC50 at 15 min ([3]; human, pH 5.5) of over 10 µM.
